Counter-ions that a name gives are not always drawn.
How the values were obtained:
[1] = Phase I multiple ascending oral dose pharmacokinetics in healthy subjects (plasma, LC-MS/MS); format: in vivo, human; conditions: for Ctau (trough plasma concentration at end of dosing interval) / Cmax / AUC / Tmax: healthy subjects; for Ctau (trough plasma concentration at end of dosing interval) / Cmax / AUC: geometric mean; for Cmax / AUC / Tmax: human, plasma, po; for Tmax: median
Method: As part of a Phase I, double-blind, placebo-controlled dose-ranging study, the pharmacokinetics of multiple ascending oral doses of Compound I·2 (HCl) were evaluated in healthy subjects. Four ascending dose cohorts were enrolled for dosing in a sequential manner. At the start, twelve subjects were randomized into each cohort for administration of a 7-day or 14-day course of study drug (n=10/cohort received Compound I·2 (HCl) and n=2/cohort received matching placebo) according to the following dose regimens: 125 mg Compound I·2 (HCl) or placebo once per day (QD) for 7 days in Cohort 1; 250 mg Compound I·2 (HCl) or placebo QD for 7 days in Cohort 2; 500 mg Compound I·2 (HCl) or placebo QD for 7 days in Cohort 3; […] Overall, 37 out of the 40 subjects receiving multiple doses of Compound I·2 (HCl) completed their respective dose regimens and were available for assessment of PK parameters at either Day 7 or Day 14.
Serial blood samples were drawn for pharmacokinetic analysis before dose administration on Day 7 or Day 14, and over the following 24 hours. The plasma samples for determination of Compound I·2 (HCl) concentrations were analyzed with the use of a validated LC-MS/MS (Liquid Chromatography with tandem mass spectrometry) bioanalytical assay.
Plasma Compound I·2 (HCl) concentration versus time profiles on Day 7 after QD oral administration of Compound I·2 (HCl) at 125, 250, and 500 mg QD, and on Day 14 after QD oral administration of Compound I·2 (HCl) at 350 mg QD, are shown in FIG. 3.
Table 1 provides a summary of plasma pharmacokinetic parameters [the maximum (peak) plasma drug concentration (Cmax), time (observed time point) to reach maximum (peak) plasma drug concentration following drug administration (Tmax), the observed trough plasma concentration at the end of the dosing interval (Ctau), and the area under the plasma concentration-time curve over the dosing interval (AUCtau)] following 7 or 14 days of multiple oral doses of Compound I·2 (HCl).

arthritis = conditions: rat models of arthritis; cited from earlier work
[2] = tested on: hereditary angioedema (HAE); conditions: HAE patients; cited from earlier work
[3] = tested on: lipopolysaccharide (LPS)- or bacterial-induced sepsis; conditions: LPS- or bacterial-induced sepsis in animals; cited from earlier work
[4] = tested on: middle cerebral artery occlusion (MCAO); conditions: mouse MCAO model; cited from earlier work
sepsis = conditions: cited from earlier work
[5] = across the full 4-fold dose range (125 mg to 500 mg QD)
[6] = 125 mg, 125 mg QD oral, Day 7 (N = 10)
[7] = 350 mg, 350 mg QD oral, Day 14 (N = 9)
[8] = 350 mg, third dose column, 350 mg QD, Day 7 (N = 9), oral
[9] = 500 mg, second dose column, 500 mg QD, Day 7 (N = 9), oral

## N#Cc1cccc([C@@H](NCC2CC2)c2ccc(F)c(NC(=O)c3cc(C(F)(F)F)nn3-c3cccc(CN)c3)c2)c1 [Compound I•2(HCl)]
[1]; 125 mg QD oral, Day 7 (N = 10)
  Ctau (trough plasma concentration at end of dosing interval): 46.1 ng/mL
[1]; [5]
  Increase in geometric mean AUCtau: 5.1 fold
  Increase in geometric mean Cmax: 5.3 fold
[1]; [6]
  Cmax: 97.8 ng/mL
  AUC: 1600 ng·h/mL
  Tmax: 5 h
[1]; [7]
  Cmax: 363 ng/mL
  AUC: 5720 ng·h/mL
[1]; [8]
  Cmax: 517 ng/mL
  AUC: 8230 ng·h/mL
[1]; [9]
  Cmax: 217 ng/mL
  AUC: 3710 ng·h/mL
  Tmax: 6 h
[1]; increase from 125 mg to 250 mg QD and 250 mg to 500 mg QD
  Dose proportionality of exposure: reasonable dose proportionality
[1]; second dose column, 500 mg QD, Day 7 (N = 9), oral
  Ctau (trough plasma concentration at end of dosing interval): 101 ng/mL

## Cl.NCC1CCC(C(=O)N[C@@H](Cc2ccccc2)C(=O)Nc2ccc(CC(=O)O)cc2)CC1 (stereo partly drawn) [PKSI-527]
arthritis
  Joint swelling: reduce joint swelling

## NC(N)=NCCC[C@@H](N)C(=O)N[C@@H](CCCN=C(N)N)C(=O)N1CCC[C@H]1C(=O)N1C[C@H](O)C[C@H]1C(=O)NCC(=O)N[C@@H](Cc1cccs1)C(=O)N[C@@H](CO)C(=O)N1Cc2ccccc2C[C@@H]1C(=O)N1[C@H](C(=O)N[C@@H](CCCN=C(N)N)C(=O)O)C[C@@H]2CCCC[C@@H]21 [Icatibant]
[2]
  Efficacy in treating HAE: effective in treating HAE

## H-D-Pro-Phe-Arg-chloromethylketone [H-D-Pro-Phe-Arg-chloromethylketone (CMK), reference compound]
[3]
  Vascular permeability in multiple organs and lesions: reduce vascular permeability in multiple organs and reduce lesions

B1: C1-inhibitor: physiological inhibitor of kallikrein in human plasma (protein, UniProt P05155 23-500, looked up)
Plasma protease C1 inhibitor: NPNATSSSSQDPESLQDRGEGKVATTVISKMLFVEPILEVSSLPTTNSTTNSATKITANTTDEPTTQPTTEPTTQPTIQPTQPTTQLPTDSPTQPTTGSFCPGPVTLCSDLESHSTEAVLGDALVDFSLKLYHAFSAMKKVETNMAFSPFSIASLLTQVLLGAGENTKTNLESILSYPKDFTCVHQALKGFTTKGVTSVSQIFHSPDLAIRDTFVNASRTLYSSSPRVLSNNSDANLELINTWVAKNTNNKISRLLDSLPSDTRLVLLNAIYLSAKWKTTFDPKKTRMEPFHFKNSVIKVPMMNSKKYPVAHFIDQTLKAKVGQLQLSHNLSLVILVPQNLKHRLEDMEQALSPSVFKAIMEKLEMSKFQPTLLTLPRIKVTTSQDMLSIMEKLEFFDFSYDLNLCGLTEDPDLQVSAMQHQTVLELTETGVEAAAASAISVARTLLVFEVQQPFLFVLWDQQHKFPVFMGRVYDPRA
[4]
  Infarct size: reduced infarct size
sepsis
  Clinical outcome in sepsis patients: Clinical improvement
[3]
  Vascular permeability in multiple organs and lesions: reduce vascular permeability in multiple organs and reduce lesions

From patent publication US12590069B2, “Crystalline salts of a plasma kallikrein inhibitor” (BioCryst Pharmaceuticals, Inc., priority 2018, dated 2026)
